Twelve compounds from patent US8507472B2 (priority 2010, dated 2013) can be followed below.

In one assay the test system is Leptosphaeria nodorum. In words: Leptosphaeria nodorum test (wheat)/protective. Format: in vivo. As to conditions: in vivo. The method, boiled down:
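Young wheat plants were sprayed protectively, then inoculated 1 day later with L. nodorum spores and held 48 h at 100% humidity and 22° C. They were then kept in a greenhouse at 90% humidity and 22° C. Efficacy was scored 7-9 days post-inoculation, where 0% equals control and 100% means no infection.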

A further assay concerns Alternaria solani. Kind of assay: Alternaria test (tomato)/protective. Format: in vivo. As to conditions: in vivo. An outline of the steps: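 Young tomato plants were sprayed with compound (DMF/emulsifier formulation diluted in water) and inoculated with A. solani spores 1 day later. Plants were kept 24 h at 100% RH and 22 °C, then at 96% RH and 20 °C. Efficacy was scored 7 days post-inoculation, where 0% equals untreated control and 100% means no infection.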

The next assay has as its system Sphaerotheca fuliginea. Kind of assay: Sphaerotheca test (cucumber)/protective. Format: in vivo. The note with it: in vivo. The method, boiled down: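 Protective test: young cucumber plants sprayed with compound (DMF/alkylaryl polyglycol ether concentrate diluted in water) at the stated rate, inoculated with S. fuliginea spores 1 day later, then kept in greenhouse at 23 °C, 70% RH. Efficacy scored 7 days post-inoculation; 0% equals untreated control, 100% means no infection.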

The next assay has as its system Uromyces appendiculatus. In words: Uromyces test (bean)/protective. As to conditions: in vivo. The format is in vivo. The method, then: (§1) Solvents: 24.5 parts by weight of acetone
(§2) • 24.5 parts by weight of dimethylacetamide Emulsifier: 1 part by weight of alkylaryl polyglycol ether
(§3) To produce a suitable preparation of active compound, 1 part by weight of active compound is mixed with the stated amounts of solvents and emulsifier, and the concentrate is diluted with water to the desired concentration.
To test for protective activity, young plants are sprayed with the active compound preparation at the stated application rate. After the spray coating has dried on, the plants are inoculated with an aqueous spore suspension of the bean rust pathogen Uromyces appendiculatus and then remain in an incubation cabin at about 20° C. and 100% relative atmospheric humidity for 1 day.
(§4) The plants are then placed in a greenhouse at about 21° C. and a relative atmospheric humidity of about 90%.
(§5) Evaluation is carried out 10 days after the inoculation. 0% means an efficacy which corresponds to that of the control, whereas an efficacy of 100% means that no infection is observed.

The next assay concerns Pyrenophora teres. Kind of assay: Pyrenophora teres test (barley)/protective. Format: in vivo. The note with it: in vivo. An outline of the steps:
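Protective test: young barley plants sprayed at the stated rate with compound in DMF/alkylaryl polyglycol ether diluted with water, inoculated with P. teres spores 1 day later, kept 48 h at 100% rel. humidity and 22° C., then greenhouse at 80% and 20° C. Efficacy scored 7-9 days post-inoculation (0% = control, 100% = no infection).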

The next assay deals with Venturia inaequalis. In words: Venturia test (apple)/protective. The format is in vivo. The note with it: 100 ppm active compound, protective, evaluation 10 days after inoculation. The method, then:
Solvents: 24.5 parts by weight of acetone • 24.5 parts by weight of dimethylacetamide Emulsifier: 1 part by weight of alkylaryl polyglycol ether
as §3
To test for protective activity, young plants are sprayed with the active compound preparation at the stated application rate. After the spray coating has dried on, the plants are inoculated with an aqueous conidia suspension of the apple scab pathogen Venturia inaequalis and then remain in an incubation cabin at about 20° C. and 100% relative atmospheric humidity for 1 day.
as §4, §5

In a further assay the test system is Botrytis cinerea. Kind of assay: Botrytis test (bean)/protective. Format: in vivo. As to conditions: 100 ppm active compound, protective, evaluation 2 days after inoculation. The method, then:
as §1, §2, §3
To test for protective activity, young plants are sprayed with the active compound preparation at the stated application rate. After the spray coating has dried on, 2 small pieces of agar colonized by Botrytis cinerea are placed onto each leaf. The inoculated plants are placed in a dark chamber at about 20° C. and 100% relative atmospheric humidity.
2 days after the inoculation, the size of the infected areas on the leaves is evaluated. 0% means an efficacy which corresponds to that of the control, whereas an efficacy of 100% means that no infection is observed.

The subject of another assay is DON/AcDON production. In words: microbe, parasite or virus in culture. Format: cell-based, Fusarium graminearum. The note with it: 7 days at 28° C.
For a further assay, the system named is Phytophthora infestans. Format: in vivo. As to conditions: in vivo.
The test system of assay [1] is Fusarium graminearum. Kind of assay: microbe, parasite or virus in culture. Format: cell-based. The note with it: 50 μM.
Assay [2] deals with Fusarium nivale (var. majus). Kind of assay: Fusarium nivale (var. majus) test (wheat)/protective. The format is in vivo. The note with it: 1000 ppm active compound, protective, evaluation 5 days after inoculation. The method, then: (§6) Solvent: 49 parts by weight of N,N-dimethylacetamide
(§7) Emulsifier: 1 part by weight of alkylaryl polyglycol ether
(§8) To produce a suitable preparation of active compound, 1 part by weight of active compound is mixed with the stated amounts of solvent and emulsifier, and the concentrate is diluted with water to the desired concentration.
(§9) To test for protective activity, young plants are sprayed with the active compound preparation at the stated application rate.
After the spray coating has dried on, the plants are sprayed with spores of a spore suspension of Fusarium nivale (var. majus).
The plants are placed in a greenhouse chamber under a translucent incubation hood at 10° C. and 100% relative atmospheric humidity.
Evaluation is carried out 5 days after the inoculation. 0% means an efficacy which corresponds to that of the control, whereas an efficacy of 100% means that no infection is observed.

Another assay deals with Puccinia triticina. In words: Puccinia triticina test (wheat)/protective. The format is in vivo. The note with it: in vivo. The method, then:
Solvent: 49 parts by weight of […]
as §7, §8, §9
After the spray coating has dried on, the plants are sprayed with spores of a spore suspension of Puccinia triticina. The plants remain in an incubation cabin at 20° C. and 100% relative atmospheric humidity for 48 hours.
The plants are placed in greenhouse at a temperature of about 20° C. and a relative atmospheric humidity of about 80%.
Evaluation is carried out 8 days after the inoculation. 0% means an efficacy which corresponds to that of the control, whereas an efficacy of 100% means that no infection is observed.

The next assay deals with Septoria tritici. Kind of assay: Septoria tritici test (wheat)/protective. The format is in vivo. The note with it: in vivo. The method, then:
as §6, §7
To produce a suitable preparation of active compound, 1 part by weight of active compound is mixed with the stated amount of solvent and emulsifier, and the concentrate is diluted with water to the desired concentration.
To test for protective activity, young plants are sprayed with the active compound preparation at the stated application rate. After the spray coating has dried on, the plants are sprayed with a spore suspension of Septoria tritici. The plants remain in an incubation cabin at 20° C. and 100% relative atmospheric humidity for 48 hours. The plants are then placed under a translucent hood at 15° C. and 100% relative atmospheric humidity for a further 60 hours.
The plants are placed in a greenhouse at a temperature of about 15° C. and a relative atmospheric humidity of 80%.
Evaluation is carried out 21 days after the inoculation. 0% means an efficacy which corresponds to that of the control, whereas an efficacy of 100% means that no infection is observed.

For assay [3], the system named is Fusarium graminearum. Format: in vivo. As to conditions: in vivo.

In the case of `CC(C)C(=O)Nc1cc(-c2c(-c3ccc(F)cc3)nn3c2CCOC3)ccn1` [Example 91], the efficacy in % in the assay with Leptosphaeria nodorum turned out to be 78%; in the assay on Alternaria solani, 90%; with Sphaerotheca fuliginea, 100%; in the assay on Uromyces appendiculatus it was 95%; in the assay on Pyrenophora teres, 95%; with Venturia inaequalis, 95%. Also, the efficacy in % in the assay on Botrytis cinerea stood at 100%.
As to `CC(C)CC(=O)Nc1cc(-c2c(-c3ccsc3)nn3c2CCCC3)ccn1` [Example 64], the efficacy in % in the assay on Leptosphaeria nodorum came out at 94%; in the assay with Alternaria solani it was 100%; with Phytophthora infestans, 80%; with Sphaerotheca fuliginea, 86%; in the assay on Uromyces appendiculatus, 78%; in the assay with Pyrenophora teres it was 100%. The efficacy in % is given as 99% in the assay on Venturia inaequalis and 100% in the assay on Botrytis cinerea. For the same compound, the “% inhibition of DON/AcDON at 50 μM” value with DON/AcDON production was found to be 100%. In addition, in the assay with Fusarium graminearum [1], the “% inhibition of the fungal growth of Fusarium graminearum at 50 μM” value (“% inhibition of the fungal growth … at 50 μM” for short) was 100%.
For `CN(C)C=Nc1cc(-c2c(-c3ccccc3)nn3c2CCCC3)ccn1` [Example 38], the “% inhibition of DON/AcDON at 50 μM” value with DON/AcDON production amounted to 99%. Besides, the efficacy in % in the assay with Alternaria solani was determined as 95%; in the assay on Phytophthora infestans, 70%; in assay [2], 86%; in the assay on Pyrenophora teres, 95%. In the assay on Fusarium graminearum [1], the “% inhibition of the fungal growth … at 50 μM” value is 89%.
On to `O=C(Nc1cc(-c2c(-c3cccs3)nn3c2CCCC3)ccn1)C1CC1` [Example 89], for which the efficacy in % in the assay on Leptosphaeria nodorum was determined as 80%; with Alternaria solani, 90%; in the assay with Phytophthora infestans it was 90%; in the assay on Sphaerotheca fuliginea, 100%; with Uromyces appendiculatus it was 95%; in the assay with Pyrenophora teres, 95%. The efficacy in % in the assay with Venturia inaequalis worked out at 94%; in the assay on Botrytis cinerea it was 100%.
For `O=C(Nc1cc(-c2c(-c3ccccc3)nn3c2CCCC3)ccn1)c1ccsc1` [Example 51], the “% inhibition of DON/AcDON at 50 μM” value in the assay with DON/AcDON production came to 100%. The efficacy in % was 95% in the assay with Alternaria solani; 86% in the assay on Uromyces appendiculatus; 90% in the assay with Pyrenophora teres; 74% with Venturia inaequalis; 99% in the assay with Botrytis cinerea. The “% inhibition of the fungal growth … at 50 μM” value in the assay with Fusarium graminearum [1] came to 41%.
Regarding `O=CNc1cc(-c2c(-c3ccccc3)nn3c2CCCC3)ccn1` [Example 37], the efficacy in % stood at 90% with Leptosphaeria nodorum; 95% in the assay with Alternaria solani; 70% with Phytophthora infestans; 78% in the assay on Puccinia triticina; 86% in assay [2]; 100% in the assay with Pyrenophora teres. Further, in the assay on DON/AcDON production, the “% inhibition of DON/AcDON at 50 μM” value was 99%. Besides, the “% inhibition of the fungal growth … at 50 μM” value in the assay with Fusarium graminearum [1] amounted to 93%.
As to `Fc1ccc(-c2nn3c(c2-c2ccncc2)CCCCC3)cc1` [Example 43], the efficacy in % in the assay on Leptosphaeria nodorum is recorded as 90%; in the assay on Septoria tritici, 100%; with Alternaria solani, 94%; in the assay with Phytophthora infestans it was 70%; in the assay on Uromyces appendiculatus, 90%; in the assay with Puccinia triticina, 100%. The efficacy in % in assay [2] is 80%; with Pyrenophora teres, 95%; in the assay with Venturia inaequalis, 98%; in the assay with Botrytis cinerea, 99%. In the assay on DON/AcDON production, the “% inhibition of DON/AcDON at 50 μM” value is 98%. Also, in the assay on Fusarium graminearum [1], the “% inhibition of the fungal growth … at 50 μM” value is reported as 100%.
As to `COC(=O)Nc1cc(-c2c(-c3ccccc3)nn3c2CCCC3)ccn1` [Example 27], the “% inhibition of DON/AcDON at 50 μM” value in the assay with DON/AcDON production was determined as 99%. Further, the efficacy in % is 100% with Alternaria solani; 80% in the assay on Phytophthora infestans; 94% with Uromyces appendiculatus; 94% in the assay on Fusarium graminearum [3]; 75% in the assay with Puccinia triticina; 86% in assay [2]. For the same compound, the efficacy in % with Pyrenophora teres worked out at 90%; in the assay on Venturia inaequalis it was 89%; in the assay on Botrytis cinerea, 92%. The “% inhibition of the fungal growth … at 50 μM” value with Fusarium graminearum [1] was found to be 56%.
In the case of `O=C(Nc1cc(-c2c(-c3ccc(F)cc3)nn3c2CCCC3)ccn1)c1ccsc1` [Example 47], the “% inhibition of DON/AcDON at 50 μM” value in the assay on DON/AcDON production was found to be 100%. For the same compound, the efficacy in % in the assay with Septoria tritici came to 100%; with Alternaria solani, 90%; with Phytophthora infestans, 80%; with Sphaerotheca fuliginea, 96%; in [2] it was 80%; in the assay on Pyrenophora teres, 90%. Also, in the assay with Fusarium graminearum [1], the “% inhibition of the fungal growth … at 50 μM” value worked out at 76%.
For `CCC(=O)Nc1cc(-c2c(-c3ccc(F)cc3)nn3c2CCOC3(C)C)ccn1` [Example 86], the efficacy in % in the assay on Leptosphaeria nodorum stood at 70%; with Alternaria solani, 90%; in the assay on Sphaerotheca fuliginea, 100%; with Uromyces appendiculatus, 95%; in the assay on Pyrenophora teres, 100%; with Venturia inaequalis it was 95%. This compound also yielded an efficacy in % in the assay with Botrytis cinerea of 100%.
Consider `O=C(Nc1cc(-c2c(-c3ccccc3)nn3c2CCCC3)ccn1)c1ccccc1` [Example 33], for which the efficacy in % in the assay with Leptosphaeria nodorum was 70%; with Alternaria solani, 89%; with Phytophthora infestans it was 70%; in the assay on Sphaerotheca fuliginea it was 95%; with Uromyces appendiculatus it was 95%; with Pyrenophora teres, 78%. In addition, the efficacy in % in the assay with Venturia inaequalis is 95%; in the assay with Botrytis cinerea it was 98%. In addition, the “% inhibition of DON/AcDON at 50 μM” value in the assay on DON/AcDON production was determined as 99%. Further, the “% inhibition of the fungal growth … at 50 μM” value with Fusarium graminearum [1] was found to be 100%.
With `CCC(=O)Nc1cc(-c2c(-c3ccsc3)nn3c2CCCC3)ccn1` [Example 59], the efficacy in % is on record as 89% with Leptosphaeria nodorum; 70% in the assay on Alternaria solani; 98% in the assay with Sphaerotheca fuliginea; 94% in the assay with Fusarium graminearum [3]; 100% with Puccinia triticina; 100% in assay [2]. Moreover, the efficacy in % in the assay with Pyrenophora teres is 90%; in the assay on Venturia inaequalis, 97%; in the assay with Botrytis cinerea, 100%. Besides, the “% inhibition of DON/AcDON at 50 μM” value with DON/AcDON production was determined as 100%. Moreover, the “% inhibition of the fungal growth … at 50 μM” value with Fusarium graminearum [1] was 100%.
